In patent publication US5292531A, “Dermatologial external agent” (Shiseido Company Ltd., priority 1990, dated 1994):
Values after ≈ are worked out from the molar mass of the structure shown. Like-named read-outs stand apart in the source and are kept apart here.

Legend:
[1] = test system: Propionibacterium acnes standard strain (ATCC 11827); experiment: Minimum growth inhibitory concentration (MIC), GAM agar medium pH 7.3±0.1 (Test Example 1); format: cell-based
Method: The growth inhibitory effects of tetrahydroabietic acid salts against Acne bacterium, which is a Gram-positive anaerobic bacterium were evaluated as follows.
Using a GAM agar medium produced by Nissui K. K. as the medium, after an adjustment of the pH of the medium to 7.3±0.1, a minimum growth inhibitory concentration (MIC) of sodium tetrahydroabietate and sodium salt of hydrogenated rosin, needed for a Propionibacterium acnes standard strain (ATCC 11827) was measured and evaluated.
As a Control, MIC's of substances generally known to have an antibacterial action (isopropylmethylphenol, berberine chloride, thioxolone, abietic acid) were also measured.

[2] = test system: Propionibacterium avidum, ATCC 25577; experiment: Growth inhibitory band around filter paper disc (Test Example 2); format: cell-based; conditions: 0.05 ml of 10% acetone solution on 8 mm disc, 37° C., 3 days, anaerobic
Method: Using an ABCM medium (Eikensha K. K.) as the antibacterial active medium, the medium was heated in an autoclave at a temperature of 115° C. for 15 minutes. A filter paper disc (8 mm.phi.) impregnated with 0.05 ml of 10% acetone solution of each sample was adhered to an agar plate to which Propionibacterium avidum, ATCC 25577 was previously inoculated and dispersed thereon, and anaerobically cultured at 37° C. for 3 days. The diameter of the transparent band (Propionibacterium avidum growth inhibitory band) formed around the filter paper upon completion of the culturing was measured, and the antibacterial power determined therefrom.

[3] = Cutibacterium acnes, ATCC11827, GAM agar medium, pH 7.3±0.1, read-out: MIC

Row | SMILES | MIC [1, 3] | MIC ([1]; GAM agar medium, pH 7.3±0.1) | Inhibitory band diameter [2] | further results
1 | O=c1oc2cc(O)ccc2s1 [Thioxolone] | 50 µg/mL (≈ 297 µM) | – | – | –
2 | CC(C)C1=CC2=CC[C@@H]3[C@](C)(CCC[C@@]3(C)C(=O)O)[C@H]2CC1 [Abietic acid] | 20 µg/mL (≈ 66.1 µM) | – | – | zone of inhibition at 10 % ([2]; Cutibacterium avidum, ATCC25577, 72 h, read-out: Inhibitory band diameter): 15 mm
3 | COc1ccc2cc3[n+](cc2c1OC)CCc1cc2c(cc1-3)OCO2 [Berberline chloride, berberine chloride] | – | – | – | MIC ([1]; Cutibacterium acnes, ATCC11827, pH 7.3): 100 µg/mL
4 | Cc1cc(O)ccc1C(C)C [Isopropylmethylphenol] | – | 100 ppm | – | –
5 | CC(C)[C@@H]1CC[C@H]2[C@@H](CC[C@@H]3[C@]2(C)CCC[C@@]3(C)C(=O)O)C1 [Tetrahydroabietic acid] | – | 3 ppm | 18 mm | –
6 | CC(C)C1CC[C@H]2C(CC[C@@H]3[C@]2(C)CCC[C@@]3(C)C(=O)[O-])C1.[Na+] (stereo partly shown) [Sodium tetrahydroabietate] | – | 5 ppm | 17 mm | Antibacterial power compared with other antibacterial substances ([1]; Table 1, in words): far stronger antibacterial power than other antibacterial substances
